Laboratory results: PubChem BioAssay (NCI)
Values joined by “and” are separate entries in the source; they are usually repeats but may differ in a detail not shown here. Identical values can stand only once.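 In this assay, cells in 96-well plates receive the compound at five concentrations for 48 hours. Endpoints are linearly interpolated between the surrounding concentrations. GI50 marks 50% less growth. TGI denotes the concentration required for complete inhibition of growth.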 Where a SMILES comes first, the peptide text is derived from it. [ ]: non-standard residue; d: D form. Phe(F5) = N[CH](Cc1c(F)c(F)c(F)c(F)c1F)C(=O)O

Columns and labels:
Test in all cases: inhibition of tumour cell growth, NCI panel, 48 h
SNB-75 CNS = tested on: SNB-75 CNS
UACC-257 melanoma = tested on: UACC-257 melanoma
LOX IMVI melanoma = tested on: LOX IMVI melanoma
SK-MEL-5 melanoma = tested on: SK-MEL-5 melanoma
IGROV1 ovarian = tested on: IGROV1 ovarian
HCC-2998 colon = tested on: HCC-2998 colon
UO-31 renal = tested on: UO-31 renal
MDA-MB-231 breast = tested on: MDA-MB-231 breast
TK-10 renal = tested on: TK-10 renal
SN12C renal = tested on: SN12C renal

| SMILES | GI50 (SNB-75 CNS) [µM] | TGI (SNB-75 CNS) [µM] | GI50 (UACC-257 melanoma) [µM] | TGI (UACC-257 melanoma) [µM] | GI50 (LOX IMVI melanoma) [µM] | TGI (LOX IMVI melanoma) [µM] | GI50 (SK-MEL-5 melanoma) [µM] | TGI (SK-MEL-5 melanoma) [µM] | GI50 (IGROV1 ovarian) [µM] | TGI (IGROV1 ovarian) [µM] | GI50 (HCC-2998 colon) [µM] | TGI (HCC-2998 colon) [µM] | GI50 (UO-31 renal) [µM] | TGI (UO-31 renal) | GI50 (MDA-MB-231 breast) [µM] | TGI (MDA-MB-231 breast) [µM] | GI50 (TK-10 renal) [µM] | TGI (TK-10 renal) [µM] | GI50 (SN12C renal) [µM] | TGI (SN12C renal) [µM] |
| --- | --- | --- | --- | --- | --- | --- | --- | --- | --- | --- | --- | --- | --- | --- | --- | --- | --- | --- | --- | --- |
| CCN1C(=O)N(CC)C2C1NN=c1s/c(=C3\C(=O)N(C(C)C)c4ccccc43)c(=O)n12 (stereo unspecified) | 0.317 | 20.9 | > 37.7 | > 100 | 0.463 | > 100 | 0.394 | 2.33 | 0.586 | > 100 | 0.357 | > 20.8 | 0.636 | > 100 µM | 0.434 | 15.4 | 1.33 | > 69.4 | 0.616 | > 100 |
| c1ccc2[nH]c(-c3ccc(N4CCN(c5ccc(-c6nc7ccccc7[nH]6)cc5)CC4)cc3)nc2c1 | > 100 | > 100 | > 100 | > 100 | > 100 | > 100 | > 100 | > 100 | 69.6 | > 100 | > 100 | > 100 | > 100 | > 100 µM | > 100 | > 100 | 37.9 | > 100 | > 100 | > 100 |
| CC1=C(C(=O)OCc2ccccc2)C(c2ccc3c(c2)OCO3)n2c(nc3ccccc32)N1 (stereo unspecified) | 0.215 | 0.801 |  | > 100 | 0.566 | > 100 | 0.472 | > 100 | 0.644 | > 100 | > 33.2 | > 100 | 0.544 | > 79.5 µM | > 92.6 | > 100 | > 100 | > 100 |  |  |
| CCc1c(C)[nH]c(/C=C2\N=C(c3ccc[nH]3)C=C2OC)c1C | 0.269 | 0.71 | 0.432 | 2.65 | < 0.0328 |  | 0.159 | 0.545 | 0.274 | 3.53 | 0.451 | 4.65 | 0.176 | 0.591 µM | 0.128 | 3.16 | 0.276 | 8.85 | 0.627 | 15.6 |
| COC(=O)C(CC(C)C)NC(=O)C(Cc1cnc[nH]1)NC(=O)CNC(=O)C(NC(=O)C(C)NC(=O)C(Cc1c[nH]c2ccccc12)NC(=O)C(CCC(=O)O)NC(=O)C(N)Cc1c(F)c(F)c(F)c(F)c1F)C(C)C (stereo unspecified) (H-[Phe(F5)]EWAVGHL-OMe; configuration not given here) |  | > 100 | > 100 | > 100 |  | > 12.5 |  | > 12.5 | > 100 | > 100 | > 100 | > 100 | 0.991 | > 12.5 µM and 56 µM |  | > 12.5 |  |  | > 100 | > 100 |
| N=C(N)c1nn(C2OC(CO)C(O)C2O)c2nc[nH]c(=O)c12 (stereo unspecified) | 1.48 | 7.27 | 0.292 | 1.29 | 0.337 | 1.84 | 0.444 | 1.53 | 1.19 | 3.81 | 0.849 | 3.37 | 0.332 | 2.62 µM | 0.248 | 0.778 | 0.363 | 2.17 | 0.315 | 2.37 |
| CC12CCC=CC1CCC1C2CCC2(C)C(c3ccc(=O)oc3)CCC12O (stereo unspecified) | 0.0282 | 0.164 | 0.255 | 0.994 | 0.033 | 0.141 | 0.0453 | 0.238 | 0.0688 | 1.36 | 0.342 | 3.42 | 0.0647 | 0.189 µM | 0.365 | 2.57 | 0.0479 | 0.499 | 0.0422 | 0.571 |
| Cc1ccc2[nH]c(C(=O)NN3C(=O)CSC34CCCCC4C)c(-c3ccccc3)c2c1 (stereo unspecified) | 19.6 | 38.1 | 16.8 | 31.8 | 18.9 | 35.6 | 15.1 | 31.3 |  |  | 16.4 | 31.6 | 15.5 | 30.9 µM | 17 | 34.5 | 17.5 | 33.8 | 17.7 | 34.2 |
| Nc1nc(/C=C\c2ccc([N+](=O)[O-])o2)nc(N2CCN(c3ccccc3)CC2)n1 | 20.9 | 47 | 11.5 | 41.3 | 3.49 | 21.2 | 6.14 | 25.1 | 5.31 | 32.3 | 10.1 | 25.8 | 13.6 | 39.8 µM | 3.51 | 13.3 | 5.77 | 32 | 11.1 | 43.9 |
| CCc1ccc(NC(=O)Nc2c[nH]c3ccccc23)cc1 | 1.01 | > 26.5 | > 38.6 | > 59.9 | 25.8 | > 50.2 | 32.7 | > 54.1 | 5.72 | > 45.5 | 18 | > 50.8 | 1.62 | > 58 µM | 3.2 | > 36.9 | > 46.1 | > 70.9 | 2.22 | > 36.2 |
| COc1cc2nc(Cl)nc(Nc3cccc(C(=O)/C=C/c4ccccc4)c3)c2cc1OC | 2.06 | 8.61 | > 31.2 | > 100 |  |  | > 22.8 | > 100 | 4.45 | 42.9 | 2.54 | 5.56 | 17.8 | > 100 µM | 6.4 | > 92.4 | 4.19 | 20 | 3.98 | 41.1 |
| CC(=O)OC1c2ccccc2CC2(OC(C)=O)c3ccccc3C12 (stereo unspecified) |  | > 100 |  | > 100 |  | > 100 |  |  |  | > 100 |  | > 100 |  | > 100 µM |  | > 100 |  | > 100 |  | > 100 |
| C=C(C)[C@@H]1CC[C@]2(C(=O)NCCCN)CC[C@]3(C)[C@H](CC[C@@H]4[C@@]5(C)CC[C@H](O)C(C)(C)[C@@H]5CC[C@]43C)[C@@H]12 | 32.1 | > 100 | 20.6 | 55.3 | 25.5 | > 100 | 19.4 | 48.6 | 21.5 | > 100 | 21.4 | 77.1 | 38.9 | > 100 µM | 21.1 | 76.2 | 23.9 | 60.4 | 20.8 | 82.6 |
| Fc1ccc(-c2nc3n(c2-c2ccncc2)CCS3)cc1 | > 25 | > 25 | > 25 | > 25 | > 25 | > 25 | > 18 | > 25 | > 25 | > 25 | > 25 | > 25 | 8.26 | > 25 µM | > 25 | > 25 | > 25 | > 25 | > 25 | > 25 |
| CCCN(Cc1ccc(F)cc1)c1ccc(CO)c(Cl)c1 | 10.6 | 22.7 | 0.207 | 0.776 | 9.49 | 21.9 | 6.51 | 19.8 | 0.0897 | 0.39 | 8.9 | 22.5 | 2.65 | 13.9 µM | 13 | 27.3 | 0.0777 | 0.357 | 9.42 | 23.1 |
| CCN(CC)CCOc1ccc(C(=C(C)c2ccc(Cl)cc2)c2ccc(OCCN(CC)CC)cc2)cc1 | 0.0499 | 1.66 | 0.592 | 1.17 | 0.552 | 1.03 | 0.592 | 1.06 | 0.609 | 1.19 | 0.574 | 1.06 | 0.503 | 0.969 µM | 0.581 | 1.12 | 0.698 | 1.67 | 1.19 | 2.88 |
| CC[C@H](Nc1nc(N)nc(C)c1C#N)c1nc2cccc(CN(C)c3ncc(C(=O)NO)cn3)c2c(=O)n1-c1ccccc1 | 0.244 | 1.82 | 0.36 | 3.11 | 0.693 | 1.35 | 0.391 | 1.12 | 0.569 | 2.28 | 0.806 | 2.32 | 1 | 3.05 µM | 0.779 | 3.08 | 0.681 | 3.85 | 1.11 | 6.03 |
| CSc1nnc(CCSc2ccnc3c(C(F)(F)F)cccc23)o1 | 19.6 | > 100 | > 100 | > 100 | > 100 | > 100 | 46.1 | > 100 | 83.2 | > 100 | 64.8 | > 100 | 86.8 | > 100 µM | > 100 | > 100 | 70.1 | > 100 | > 100 | > 100 |
| Cc1ccc(C(=O)Nc2ccc(S(=O)(=O)O)c3cc(S(=O)(=O)O)cc(S(=O)(=O)O)c23)cc1NC(=O)c1cccc(N)c1 |  | > 100 |  | > 100 |  |  |  | > 100 |  | > 100 |  | > 100 |  | > 100 µM |  | > 100 |  | > 100 |  | > 100 |
| c1ccc2nc(Cn3c[n+](Cc4ccc5ccccc5n4)c4ccccc43)ccc2c1 | 2.09 | 9.13 | 2.02 | 5.33 | 1.91 | 7.8 | 1.45 | 2.8 | 1.65 | 8.27 | 2.76 | 13.6 | 7.08 | 21.7 µM | 1.59 | 4.46 | 3.49 | 13.3 | 2.19 | 10.9 |
| CN(C)CCNC(=O)c1cccn2c(=O)c3cc4ccccc4cc3nc12 | 0.28 | 1.77 | 0.268 | 1.14 | 0.0624 | 0.286 | 0.131 | 0.476 | 0.0396 | 2.17 | 0.241 | 1.06 |  |  | 0.316 | 8.84 | 0.399 | 9.8 | 0.144 | > 100 |
| CN(C)CCCNC(=O)c1cc(NC(=O)CCNS(=O)(=O)c2ccc3c(c2)C(=O)c2ccccc2C3=O)cn1C |  |  | 54.4 | > 100 |  |  | > 100 | > 100 | > 100 | > 100 | > 100 | > 100 | > 100 | > 100 µM | > 100 | > 100 | > 100 | > 100 | > 100 | > 100 |
| COc1ccc(C(=O)/C=C/c2ccc(Cl)cc2)cc1S(=O)(=O)Nc1c(N)nc(SC)[nH]c1=O |  |  | 8.27 | 21.4 | 1.63 | 3.22 | 2.72 | 9.59 | 3.25 | 11.9 | 1.92 | 3.53 | 1.89 | 4.53 µM | 3.42 | 10.5 | 2.98 | 9.44 | 3.45 | 13.8 |
| CC1(C)CCC2(C(=O)OC3OC(CO)C(O)C(O)C3O)CC[C@]3(C)C(=CCC4C5(C)CC[C@H](OC6OC(C(=O)O)C(O)C(O)C6O)C(C)(C)C5CCC43C)C2C1 (stereo partly specified) |  |  | 4.18 | 15.4 | 0.807 | 1.49 | 0.929 | 1.78 | 1.7 | > 50 | 0.89 | 1.64 | 12.7 | 31.8 µM | 1.15 | 2.76 | 1.85 | 10.3 | 1.39 | 3.55 |
| COc1cc(Cn2cc3c(c2)-c2oncc2CC3)cc(OC)c1OC |  |  | 1.16 | 51.7 | 0.0716 | > 100 | 0.0366 | 0.195 | 0.0456 | 24.8 | 0.0413 | 17 | 0.0594 | 15.1 µM | 0.0601 | > 100 | 5.77 | > 100 | 0.0435 |  |
